Experimental data published in publication PMC4210869, “Functional Phylogenetics Reveals Contributions of Pleiotropic Peptide Action to Ligand-Receptor Coevolution” (Scientific Reports, 2014).
Where two headings read alike, the source gives them in different places. Where no end group is shown, it is not given here.

What was measured:
Type in all cases: cell-based
[1] = target: T1, TcPKr-A (Tribolium castaneum, UniProt A0ACM8QKC5); test: Aequorin luminescence (calcium mobilization) assay, CHO cells transiently expressing TcPKr-A
T1 sequence (A0ACM8QKC5 1-530): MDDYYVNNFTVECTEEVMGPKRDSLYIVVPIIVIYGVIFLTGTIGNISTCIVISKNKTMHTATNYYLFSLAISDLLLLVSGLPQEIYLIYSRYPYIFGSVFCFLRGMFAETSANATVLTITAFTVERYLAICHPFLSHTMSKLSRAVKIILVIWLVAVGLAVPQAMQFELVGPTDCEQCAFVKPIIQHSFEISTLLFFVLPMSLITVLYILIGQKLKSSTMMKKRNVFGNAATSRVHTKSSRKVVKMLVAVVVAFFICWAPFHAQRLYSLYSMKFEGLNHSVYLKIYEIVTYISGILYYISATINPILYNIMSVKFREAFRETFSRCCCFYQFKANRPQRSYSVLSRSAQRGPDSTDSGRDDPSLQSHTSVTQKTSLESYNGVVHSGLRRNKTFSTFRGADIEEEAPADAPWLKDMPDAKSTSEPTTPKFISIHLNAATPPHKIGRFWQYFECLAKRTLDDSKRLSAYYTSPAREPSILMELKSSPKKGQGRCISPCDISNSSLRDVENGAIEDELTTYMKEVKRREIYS
Protocol: (§1) We characterized all PRXamide GPCRs through assays of 9 endogenous ligands. Ligand activities were quantified by detection of luminescence responses from CHO cells transiently transfected with GPCR (see Methods and Materials section for details). Dose-response curves were generated by logistic fitting of the log transformed ligand concentrations ranging from 0.01 nM to 10 μM (Fig. 3). All results, shown as averages, were replicated in three independent experiments (see Supplementary Data 1 for details).
(§2) T. castaneum was kept in a 30°C growth chamber under a 16 : 8 (L : D) photoperiod and fed on a diet of wheat flour and Brewer's yeast (10 : 1). Peptides from T. castaneum were synthesized by Genescript (Piscataway, NJ). For culture of Chinese Hamster Ovary cells (CHO), DMEM/F12 medium, fetal bovine serum (FBS), Fungizone and Penicillin/Streptomycin, and coelenterazine for aequorin functional assay were purchased from Gibco cell culture at Life Technologies^TM (Grand Island, NY). TransIT-LT1 Transfection Reagent (Mirus Bio LLC, Madison, WI) was used for transient transfections. […]
(§3) cDNAs for full GPCR ORFs were inserted into the expression vector pcDNA3.1(+) (Invitrogen) or pcDNA5/FRT (Invitrogen). Methods for expression in Chinese Hamster Ovary (CHO) cell supplemented with aequorin and G-α16 and the assays were performed as previously described. Briefly, cells were transfected using the TransIT-LT1 transfection reagent (Mirus Bio LLC). Thirty hours after the transfection, the cells were collected and preincubated with the coelenterazine (Invitrogen) prior to the functional assay. A serial dilution (10 folds) of the 9 endogenous ligands were applied to the cells. The luminescence caused by the intracellular calcium mobilization were measured in continuous 20 seconds in every half-second interval. […] Based on which, a dose response curve was generated for each receptor by logistic fitting in Origin 8.6 (OriginLab).

[2] = target: T2, TcCAPAr (Tribolium castaneum, UniProt A0A0A7H7W3); test: Aequorin luminescence (calcium mobilization) assay, CHO cells transiently expressing TcCAPAr
T2 sequence (A0A0A7H7W3 1-418): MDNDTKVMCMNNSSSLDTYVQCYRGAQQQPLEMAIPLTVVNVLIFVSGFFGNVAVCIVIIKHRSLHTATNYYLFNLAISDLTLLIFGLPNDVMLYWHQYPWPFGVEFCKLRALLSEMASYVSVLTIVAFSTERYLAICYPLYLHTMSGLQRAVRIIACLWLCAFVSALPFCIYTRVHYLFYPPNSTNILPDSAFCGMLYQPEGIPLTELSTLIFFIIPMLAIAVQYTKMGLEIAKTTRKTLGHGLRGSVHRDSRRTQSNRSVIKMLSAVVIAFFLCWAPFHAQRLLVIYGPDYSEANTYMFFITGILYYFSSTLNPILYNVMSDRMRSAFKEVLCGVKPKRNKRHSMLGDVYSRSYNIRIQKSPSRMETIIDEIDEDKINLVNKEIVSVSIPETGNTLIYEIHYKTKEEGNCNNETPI
Protocol: as §1, §2, §3

[3] = target: T3, TcPKr-C (Tribolium castaneum, UniProt A0ACM8QKC4); test: Aequorin luminescence (calcium mobilization) assay, CHO cells transiently expressing TcPKr-C; settings: for Receptor activation, in words: text summary of dose-response data
T3 sequence (A0ACM8QKC4 1-483): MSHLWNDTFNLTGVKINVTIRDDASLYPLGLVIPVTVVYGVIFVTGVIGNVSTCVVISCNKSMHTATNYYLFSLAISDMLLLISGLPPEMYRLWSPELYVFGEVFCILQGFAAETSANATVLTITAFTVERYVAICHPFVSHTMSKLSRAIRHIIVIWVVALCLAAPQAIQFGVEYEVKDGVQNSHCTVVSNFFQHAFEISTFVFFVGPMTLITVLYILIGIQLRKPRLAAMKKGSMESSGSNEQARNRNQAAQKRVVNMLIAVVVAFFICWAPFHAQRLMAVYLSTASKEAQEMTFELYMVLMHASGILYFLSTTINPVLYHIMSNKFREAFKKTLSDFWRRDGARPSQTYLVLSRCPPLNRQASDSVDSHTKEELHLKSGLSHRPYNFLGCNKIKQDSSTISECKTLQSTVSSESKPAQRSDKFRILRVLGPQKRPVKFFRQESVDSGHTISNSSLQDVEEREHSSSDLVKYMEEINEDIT
Protocol: as §1, §2, §3

[4] = target: T4, TcPKr-B (Tribolium castaneum, UniProt A0A0A7H8P0); test: Aequorin luminescence (calcium mobilization) assay, CHO cells transiently expressing TcPKr-B
T4 sequence (A0A0A7H8P0 1-560): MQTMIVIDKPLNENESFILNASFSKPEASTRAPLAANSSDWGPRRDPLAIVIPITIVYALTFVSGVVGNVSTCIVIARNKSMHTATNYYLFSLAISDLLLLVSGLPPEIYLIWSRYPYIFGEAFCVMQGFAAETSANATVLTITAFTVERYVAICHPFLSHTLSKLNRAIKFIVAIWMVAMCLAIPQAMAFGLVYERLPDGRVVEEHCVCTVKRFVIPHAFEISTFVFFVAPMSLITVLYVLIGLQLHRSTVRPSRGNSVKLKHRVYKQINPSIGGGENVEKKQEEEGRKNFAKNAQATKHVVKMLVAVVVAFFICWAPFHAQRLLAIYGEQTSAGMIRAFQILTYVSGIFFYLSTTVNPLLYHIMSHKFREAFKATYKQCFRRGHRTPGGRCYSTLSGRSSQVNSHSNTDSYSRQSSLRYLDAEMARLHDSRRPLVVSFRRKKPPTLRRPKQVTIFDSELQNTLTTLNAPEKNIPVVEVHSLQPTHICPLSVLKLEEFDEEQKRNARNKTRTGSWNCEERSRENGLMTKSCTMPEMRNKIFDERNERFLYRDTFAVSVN
Protocol: as §1, §2, §3

[5] = Supplementary data 1, fitted value incl. extrapolations beyond 10 μM, unit inferred, nM by Fig. 3, read-out: EC50s
[6] = EC50 (bound given in μM), Fig. 3, above highest tested concentration 10 μM
[7] = EC50 [nM], Fig. 3, CHO cells with aequorin and G-α16, logistic fit, ligand 0.01 nM to 10 μM, average of three independent experiments

Substance | EC50 [1, 5] [nM] | EC50 [2, 5] [nM] | EC50 [3, 6] [µM] | EC50 [4, 6] [µM] | EC50 [4, 5] [µM] | EC50 [3, 5] [µM] | EC50 [2, 6] [nM] | EC50 [1, 6] [nM] | EC50 [2] [nM] | EC50 [2, 7] [nM] | Receptor activation, in words [3]
ENYVLKAAKNVPRI-NH2 [ETH-1] | 9840 | 150 | > 10 | > 10 | 120 |  |  |  |  |  | 
FFMKASKSVPRI-NH2 [ETH-2] | 6300 | 88.8 | > 10 | > 10 | 21.8 | 502 |  |  |  |  | 
HSSPFSPRL-NH2 [PK2/PBAN-3] | 7.7 | 36600 |  |  | 0.0287 | 0.001 | > 10000 |  |  |  | 
HVVNFTPRL-NH2 [PK2/PBAN-1] | 21 | 16100 |  |  | 0.0119 | 0.0014 | > 10000 |  |  |  | 
NKLASVYALTPSLRV-NH2 [CAPA-1] | 30700 |  | > 10 | > 10 | 338 |  |  | > 10000 | 3.7 |  | 
PGANSGGMWFGPRL-NH2 [PK1/DH-1] | 6.2 | 1070 | > 10 |  | 0.161 |  |  |  |  | 6970 | not
RIGKMVSFPRI-NH2 [CAPA-2] | 12800 | 5.8 | > 10 | > 10 | 62.5 |  |  | > 10000 |  |  | 
SPPFAPRL-NH2 [PK2/PBAN-2] | 17.5 | 6970 |  |  | 0.0032 | 0.013 |  |  |  | 1070 | 
TPHESSVPNERNDDSKETYFWFGPRL-NH2 [PK1/DH-2] | 92.6 | 1070 |  |  | 0.0658 | 0.576 |  |  |  |  | activated by high concentrations
